{"source": "ChEMBL document CHEMBL4325854", "about": "“Synthetic small molecules as anti-biofilm agents in the struggle against antibiotic resistance” (Eur J Med Chem, 2019)", "key": {"[1]": {"system": "Staphylococcus aureus", "assay": "Antibiofilm activity against methicillin-resistant Staphylococcus aureus ATCC BAA-44 preformed biofilms assessed as reduction in biofilm dispersion", "type": "functional, organism-based"}, "[2]": {"system": "Staphylococcus aureus", "assay": "Antibiofilm activity against methicillin-resistant Staphylococcus aureus ATCC BAA-44", "type": "functional, organism-based"}, "[3]": {"system": "Staphylococcus epidermidis", "assay": "Antibiofilm activity against Staphylococcus epidermidis", "type": "functional"}, "[4]": {"system": "Staphylococcus aureus", "assay": "Antibiofilm activity against methicillin-resistant Staphylococcus aureus isolate 2", "type": "functional"}, "[5]": {"system": "Enterococcus", "assay": "Antibiofilm activity against vancomycin-resistant Enterococcus", "type": "functional"}, "[6]": {"system": "Staphylococcus aureus", "assay": "Antibiofilm activity against methicillin-resistant Staphylococcus aureus BAA-1707", "type": "functional"}, "[7]": {"system": "Enterococcus faecalis", "assay": "Antibiofilm activity against Enterococcus faecalis", "type": "functional"}, "[8]": {"system": "Staphylococcus aureus", "assay": "Antibiofilm activity against methicillin-resistant Staphylococcus aureus", "type": "functional, organism-based"}, "[9]": {"biological_target": "T1, Fucose-binding lectin PA-IIL (Pseudomonas aeruginosa (strain ATCC 15692 / DSM 22644 / CIP 104116 / JCM14847 / LMG 12228 / 1C / PRS 101 / PAO1), UniProt Q9HYN5)", "assay": "Inhibition of N-(Fluorescein-5-yl)-N'-(alpha-L-fucopyranosyl ethylen)thiocarbamide binding to Pseudomonas aeruginosa PA14 LecB after 22 to 24 hrs by fluorescence polarization assay"}, "[10]": {"biological_target": "T1, Fucose-binding lectin PA-IIL", "assay": "Inhibition of biotinylated polymeric fucose binding to Pseudomonas aeruginosa LecB expressed in Escherichia coli BL21(DE3) preincubated for 1 hr followed by biotinylated polymeric fucose addition and measured after 1 hr"}, "[11]": {"system": "Pseudomonas aeruginosa", "assay": "Antibiofilm activity against Pseudomonas aeruginosa", "type": "functional, organism-based"}, "[12]": {"system": "Staphylococcus epidermidis", "assay": "Antibiofilm activity against Staphylococcus epidermidis at 25 ug/ml relative to control", "type": "functional"}, "[13]": {"system": "Staphylococcus aureus", "assay": "Antibiofilm activity against Staphylococcus aureus ATCC 29213 at 6.2 ug/ml relative to control", "type": "functional"}, "[14]": {"system": "Staphylococcus aureus", "assay": "Antibiofilm activity against Staphylococcus aureus ATCC 29213 at 25 ug/ml relative to control", "type": "functional"}, "[15]": {"system": "Staphylococcus aureus", "assay": "Antibiofilm activity against Staphylococcus aureus ATCC 6538", "type": "functional, organism-based"}, "[16]": {"biological_target": "T2, Sortase A (Staphylococcus aureus, UniProt Q9S446)", "T2 sequence (Q9S446 whole entry)": "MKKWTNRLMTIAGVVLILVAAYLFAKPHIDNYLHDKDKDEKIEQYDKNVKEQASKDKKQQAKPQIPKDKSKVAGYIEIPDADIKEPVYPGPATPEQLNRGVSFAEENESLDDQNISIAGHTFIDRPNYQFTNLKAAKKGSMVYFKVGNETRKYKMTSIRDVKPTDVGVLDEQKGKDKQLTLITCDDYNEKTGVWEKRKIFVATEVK", "assay": "Inhibition of Staphylococcus aureus SrtA"}, "[17]": {"system": "Enterococcus faecium", "assay": "Antibiofilm activity against Enterococcus faecium", "type": "functional"}, "[18]": {"system": "Vibrio cholerae", "assay": "Antibiofilm activity against Vibrio cholerae", "type": "functional, organism-based"}, "[19]": {"system": "Vibrio cholerae", "assay": "Antibiofilm activity against Vibrio cholerae assessed as inhibition of biofilm dispersion", "type": "functional, organism-based"}}, "note": "pIC50: −log10 of the molar value. Positions of bridges follow the written chain, without caps; N, C: chain ends. Residues, ends and D or L forms follow the SMILES beside them. Groups on a side chain read outwards from the residue. Chains are numbered I, II in the order given. *: point of attachment. Acetyl(C-α-L-Fucp) = C[C@@H]1O[C@@H](CC(=O)*)[C@@H](O)[C@H](O)[C@@H]1O"}
{"smiles": "CCCCC(Cl)(Cl)C1NC(=O)/C(=C/c2ccc(C(F)(F)F)cc2)O1", "note": "(stereo not given)", "values": [{"measurement": "pIC50", "setting": "[1]", "result": 5.33}, {"measurement": "pIC50", "setting": "[2]", "result": 6.11}]}
{"smiles": "Oc1c(Br)cc(Br)c2ccc(CNc3ccc(F)cc3)nc12", "values": [{"measurement": "MBEC", "setting": "[3]", "result": 5.9, "unit": "µM"}, {"measurement": "MBEC", "setting": "[4]", "result": 93.8, "unit": "µM"}, {"measurement": "MBEC", "setting": "[5]", "result": 1, "unit": "µM"}, {"measurement": "MBEC", "setting": "[6]", "result": 7.8, "unit": "µM"}]}
{"smiles": "CCCCCCCCCCCC[N+](C)(C)CCNCC[N+](C)(C)CCCCCCCCCCCC", "values": [{"measurement": "MBEC", "setting": "[7]", "result": 25, "unit": "µM"}, {"measurement": "MBEC", "setting": "[8]", "result": 50, "unit": "µM"}]}
{"smiles": "Cc1cc(C)c(S(=O)(=O)NC[C@H]2O[C@@H](C)[C@@H](O)[C@@H](O)[C@@H]2O)c(C)c1", "values": [{"measurement": "pIC50", "setting": "[9]", "result": 6.47}]}
{"smiles": "CC[C@H](C)[C@H](NC(=O)[C@H](Cc1cnc[nH]1)NC(=O)[C@H](CCCCNC(=O)[C@@H](NC(=O)[C@H](CCCCN)NC(=O)[C@H](Cc1ccccc1)NC(=O)[C@H](CCCCNC(=O)[C@H](CC(C)C)NC(=O)[C@@H]1CCCN1C(=O)[C@H](CCCCN)NC(=O)C[C@@H]1O[C@@H](C)[C@@H](O)[C@@H](O)[C@@H]1O)NC(=O)[C@H](CC(C)C)NC(=O)[C@@H]1CCCN1C(=O)[C@H](CCCCN)NC(=O)C[C@@H]1O[C@@H](C)[C@@H](O)[C@@H](O)[C@@H]1O)[C@@H](C)CC)NC(=O)[C@@H](NC(=O)[C@H](CCCCN)NC(=O)[C@H](Cc1ccccc1)NC(=O)[C@H](CCCCNC(=O)[C@H](CC(C)C)NC(=O)[C@@H]1CCCN1C(=O)[C@H](CCCCN)NC(=O)C[C@@H]1O[C@@H](C)[C@@H](O)[C@@H](O)[C@@H]1O)NC(=O)[C@H](CC(C)C)NC(=O)[C@@H]1CCCN1C(=O)[C@H](CCCCN)NC(=O)C[C@@H]1O[C@@H](C)[C@@H](O)[C@@H](O)[C@@H]1O)[C@@H](C)CC)C(N)=O", "note": "(I: {Acetyl(C-α-L-Fucp)}-KPLK([Leu-Pro-Lys-Acetyl(C-α-L-Fucp)])FKIKHI-NH2 / II: {Acetyl(C-α-L-Fucp)}-KPLK([Leu-Pro-Lys-Acetyl(C-α-L-Fucp)])FKI; amide I:8-II:C)", "values": [{"measurement": "pIC50", "setting": "[10]", "result": 6.85}, {"measurement": "pIC50", "setting": "[11]", "result": 5.00}]}
{"smiles": "Cc1nn(C)c([N-]C(=O)c2ccc([N+](=O)[O-])cc2)c1[N+]#N", "values": [{"measurement": "Activity", "setting": "[12]", "result": "69 - 96%"}, {"measurement": "Activity", "setting": "[13]", "result": 86.5, "unit": "%"}, {"measurement": "Activity", "setting": "[14]", "result": "69 - 96%"}]}
{"smiles": "CCOC(=O)/C(=N/Nc1c(F)cccc1F)C(=O)c1cc(C)nn1CC", "values": [{"measurement": "pIC50", "setting": "[15]", "result": 6.05}, {"measurement": "pIC50", "setting": "[16]", "result": 4.12}]}
{"smiles": "CCc1cccc2nc3c(O)c(Br)cc(Br)c3nc12", "values": [{"measurement": "MBEC", "setting": "[3]", "result": 2.35, "unit": "µM"}, {"measurement": "MBEC", "setting": "[17]", "result": 0.59, "unit": "µM"}]}
{"smiles": "O[C@H](c1cc(-c2cccc(S(F)(F)(F)(F)F)c2)nc2ccccc12)[C@@H]1CCCN1", "values": [{"measurement": "pIC50", "setting": "[18]", "result": 5.36}, {"measurement": "DC50", "setting": "[19]", "result": 7.4, "unit": "µM"}]}
